Assay results as given in patent publication US20250171438A1 (Agios Pharmaceuticals, Inc., priority 2022, published 2025).

molecular target: T1, human PAH with the R408W mutation (Homo sapiens, UniProt P00439, R408W); assay: Cell Based Phenylalanine Flux Assay; design: scale not given here; conditions: A375 cells expressing human R408W PAH; 24 hrs compound incubation; 13C-Tyrosine by LC-MS; average where tested multiple times; read-out: AC50
T1 construct: expressed in transfected cells
T1 sequence (P00439 1-452 R408W): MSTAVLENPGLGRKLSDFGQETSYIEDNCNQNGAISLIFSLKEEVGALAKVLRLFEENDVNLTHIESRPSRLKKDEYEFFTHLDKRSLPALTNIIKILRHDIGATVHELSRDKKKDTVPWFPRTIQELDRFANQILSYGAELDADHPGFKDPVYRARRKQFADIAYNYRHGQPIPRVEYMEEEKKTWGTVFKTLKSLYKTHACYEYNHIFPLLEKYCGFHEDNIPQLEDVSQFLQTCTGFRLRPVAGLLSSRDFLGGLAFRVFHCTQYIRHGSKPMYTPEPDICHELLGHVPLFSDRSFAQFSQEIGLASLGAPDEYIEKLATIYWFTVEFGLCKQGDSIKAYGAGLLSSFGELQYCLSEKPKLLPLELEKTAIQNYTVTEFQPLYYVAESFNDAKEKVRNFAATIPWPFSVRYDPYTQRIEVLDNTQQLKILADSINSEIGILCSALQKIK

Row | Compound | AC50 [µM]
1 | O=C(c1cc(C(F)(F)F)n[nH]1)N1CCc2[nH]cnc2[C@@H]1c1nc2c(F)cccc2s1 [Example 1815, (R)-(4-(4-fluorobenzo[d]thiazol-2-yl)-6,7-dihydro-1H-imidazo[4,5-c]pyridin-5(4H)-yl)(3-(trifluoromethyl)-1H-pyrazol-5-yl)methanone] | 1 to 5
2 | O=C(c1oc(C2(O)CC2)nc1C(F)F)N1CCc2[nH]cnc2[C@@H]1c1nc2c(F)cccc2s1 [Example 1996, (R)-(4-(difluoromethyl)-2-(1-hydroxycyclopropyl)oxazol-5-yl)(4-(4-fluorobenzo[d]thiazol-2-yl)-6,7-dihydro-1H-imidazo[4,5-c]pyridin-5(4H)-yl)methanone] | 1 to 5
3 | Cc1csc(CCC(=O)N2CCc3[nH]cnc3[C@@H]2c2nc3ccccc3s2)n1 [Example 1080, (R)-1-(4-(benzo[d]thiazol-2-yl)-6,7-dihydro-1H-imidazo[4,5-c]pyridin-5(4H)-yl)-3-(4-methylthiazol-2-yl)propan-1-one] | > 5
4 | (R)-(4-(benzo[d]thiazol-2-yl)-6,7-dihydro-1H-imidazo[4,5-c]pyridin-5(4H)-yl)(6-bromopyrazolo[1,5-a]pyridin-3-yl)methanone [Example 1046] | 1 to 5
5 | O=C(c1nnc(C2CC2)o1)N1CCc2[nH]cnc2[C@@H]1c1nc2c(F)cccc2s1 [Example 1444, (R)-(5-cyclopropyl-1,3,4-oxadiazol-2-yl)(4-(4-fluorobenzo[d]thiazol-2-yl)-6,7-dihydro-1H-imidazo[4,5-c]pyridin-5(4H)-yl)methanone] | 1 to 5
6 | O=C(c1oc(-c2ccccn2)nc1C1CC1)N1CCCc2[nH]cnc2[C@H]1c1nc2ccccc2s1 [Example 2119, (S)-(4-(benzo[d]thiazol-2-yl)-7,8-dihydroimidazo[4,5-c]azepin-5(1H,4H,6H)-yl)(4-cyclopropyl-2-(pyridin-2-yl)oxazol-5-yl)methanone] | 0.5 to 1
7 | C[C@@H]1CN(C(=O)c2nnc(-c3cnn(C)c3)o2)[C@@H](c2nc3ccccc3s2)c2nc[nH]c21 [Example 1749, ((4R,7R)-4-(benzo[d]thiazol-2-yl)-7-methyl-6,7-dihydro-1H-imidazo[4,5-c]pyridin-5(4H)-yl)(5-(1-methyl-1H-pyrazol-4-yl)-1,3,4-oxadiazol-2-yl)methanone] | 1 to 5
8 | O=C(c1cnn(CC(F)(F)F)c1C(F)F)N1CCc2[nH]cnc2[C@@H]1c1nc2ccccc2s1 [Example 1974, (R)-(4-(benzo[d]thiazol-2-yl)-6,7-dihydro-1H-imidazo[4,5-c]pyridin-5(4H)-yl)(5-(difluoromethyl)-1-(2,2,2-trifluoroethyl)-1H-pyrazol-4-yl)methanone] | 1 to 5
9 | COc1ccn2ncc(C(=O)N3CCc4[nH]cnc4[C@@H]3c3nc4c(F)cccc4s3)c2c1 [Example 1198, (R)-(4-(4-fluorobenzo[d]thiazol-2-yl)-6,7-dihydro-1H-imidazo[4,5-c]pyridin-5(4H)-yl)(5-methoxypyrazolo[1,5-a]pyridin-3-yl)methanone] | 1 to 5
10 | Cn1nc(C(C)(C)C#N)nc1C(=O)N1CCc2[nH]cnc2[C@@H]1c1nc2ccccc2s1 [Example 2046, (R)-2-(5-(4-(benzo[d]thiazol-2-yl)-4,5,6,7-tetrahydro-1H-imidazo[4,5-c]pyridine-5-carbonyl)-1-methyl-1H-1,2,4-triazol-3-yl)-2-methylpropanenitrile] | 1 to 5
11 | O=C(c1nnc(-c2ccccn2)o1)N1CCc2[nH]cnc2[C@H]1c1nc2cccc(F)c2s1 [Example 1718, (S)-(4-(7-fluorobenzo[d]thiazol-2-yl)-6,7-dihydro-1H-imidazo[4,5-c]pyridin-5(4H)-yl)(5-(pyridin-2-yl)-1,3,4-oxadiazol-2-yl)methanone] | < 0.5
12 | O=C(c1nnc(-c2ccccn2)o1)N1CC2(CC2)c2[nH]cnc2[C@@H]1c1nc2ccccc2s1 [Example 1683, (R)-(4′-(benzo[d]thiazol-2-yl)spiro[cyclopropane-1,7′-imidazo[4,5-c]pyridin]-5′(1′H,4′H,6′H)-yl)(5-(pyridin-2-yl)-1,3,4-oxadiazol-2-yl)methanone] | 1 to 5
13 | O=C(c1nnc(-c2ccc(F)c(F)c2)o1)N1CCc2[nH]cnc2[C@@H]1c1nc2c(F)cccc2s1 [Example 1877, (R)-(5-(3,4-difluorophenyl)-1,3,4-oxadiazol-2-yl)(4-(4-fluorobenzo[d]thiazol-2-yl)-6,7-dihydro-1H-imidazo[4,5-c]pyridin-5(4H)-yl)methanone] | 1 to 5
14 | Nc1cnc(N2CCc3[nH]cnc3[C@@H]2c2nc3ccccc3s2)nc1 (single isomer, unassigned) [Example 1467] | 1 to 5
15 | Cn1nccc1C(=O)N1CCc2[nH]cnc2[C@H]1c1nc2c(C(F)(F)F)cccc2s1 [Example 2111, (S)-(1-methyl-1H-pyrazol-5-yl)(4-(4-(trifluoromethyl)benzo[d]thiazol-2-yl)-6,7-dihydro-1H-imidazo[4,5-c]pyridin-5(4H)-yl)methanone] | 0.5 to 1
16 | O=C(c1ccns1)N1CCc2[nH]cnc2[C@H]1c1nc2ccccc2s1 [Example 1051] | 0.5 to 1
17 | O=C(c1cnc(-c2ccc(F)cn2)o1)N1CCc2[nH]cnc2[C@@H]1c1nc2ccccc2s1 [Example 1338, (R)-(4-(benzo[d]thiazol-2-yl)-6,7-dihydro-1H-imidazo[4,5-c]pyridin-5(4H)-yl)(2-(5-fluoropyridin-2-yl)oxazol-5-yl)methanone] | 1 to 5
18 | O=C(c1cnc(-c2c(F)cccc2F)s1)N1CCc2[nH]cnc2[C@@H]1c1nc2ccccc2s1 [Example 1510, (R)-(4-(benzo[d]thiazol-2-yl)-6,7-dihydro-1H-imidazo[4,5-c]pyridin-5(4H)-yl)(2-(2,6-difluorophenyl)thiazol-5-yl)methanone] | < 0.5
19 | Cc1nn2ccccc2c1C(=O)N1CCc2[nH]cnc2[C@H]1c1nc2ccccc2s1 [Example 1165] | < 0.5
20 | Cc1nc(C(C)(C)O)oc1C(=O)N1CCc2[nH]cnc2[C@H]1c1nc2c(C(F)(F)F)cccc2s1 [Example 2115, (S)-(2-(2-hydroxypropan-2-yl)-4-methyloxazol-5-yl)(4-(4-(trifluoromethyl)benzo[d]thiazol-2-yl)-6,7-dihydro-1H-imidazo[4,5-c]pyridin-5(4H)-yl)methanone] | 0.5 to 1
21 | CC(C)(F)c1ccc2c(C(=O)N3CCc4[nH]cnc4[C@@H]3c3nc4ccccc4s3)cnn2c1 [Example 1480, (R)-(4-(benzo[d]thiazol-2-yl)-6,7-dihydro-1H-imidazo[4,5-c]pyridin-5(4H)-yl)(6-(2-fluoropropan-2-yl)pyrazolo[1,5-a]pyridin-3-yl)methanone] | 1 to 5
22 | COc1cccc(CCCC(=O)N2CCc3[nH]cnc3[C@@H]2c2nc3ccccc3[nH]2)c1 [Example 918, (R)-1-(4-(1H-benzo[d]imidazol-2-yl)-6,7-dihydro-1H-imidazo[4,5-c]pyridin-5(4H)-yl)-4-(3-methoxyphenyl)butan-1-one] | > 5
23 | Cc1n[nH]cc1-c1nnc(C(=O)N2CCc3[nH]cnc3[C@@H]2c2nc3ccccc3s2)o1 [Example 1942, (R)-(4-(benzo[d]thiazol-2-yl)-6,7-dihydro-1H-imidazo[4,5-c]pyridin-5(4H)-yl)(5-(3-methyl-1H-pyrazol-4-yl)-1,3,4-oxadiazol-2-yl)methanone] | 1 to 5
24 | O=C(c1ncc(Cl)s1)N1CCc2[nH]cnc2[C@@H]1c1nc2c(F)cccc2s1 [Example 1220, (R)-(5-chlorothiazol-2-yl)(4-(4-fluorobenzo[d]thiazol-2-yl)-6,7-dihydro-1H-imidazo[4,5-c]pyridin-5(4H)-yl)methanone] | 1 to 5
25 | CC(O)c1nc(Cl)c(C(=O)N2CCc3[nH]cnc3[C@@H]2c2nc3c(F)cccc3s2)o1 (single isomer, unassigned) [Example 2081] | 1 to 5
26 | O=C(c1nnc(-c2ccccc2)s1)N1CCc2[nH]cnc2[C@@H]1c1nc2ccccc2s1 [Example 1420, (R)-(4-(benzo[d]thiazol-2-yl)-6,7-dihydro-1H-imidazo[4,5-c]pyridin-5(4H)-yl)(5-phenyl-1,3,4-thiadiazol-2-yl)methanone] | > 5

same assay, conditions: A375 cells expressing human R408W PAH; 24 hrs with compound; 13C-Tyrosine by LC-MS; average where tested multiple times

Row | Compound | AC50
27 | Cn1cc(-c2nc(C(F)(F)F)c(C(=O)N3CCc4[nH]cnc4[C@@H]3c3nc4ccccc4s3)o2)cn1 (single isomer, unassigned) | E, E

same assay, conditions: A375 cells expressing human R408W PAH; 24 hrs with compound; 13C-Tyrosine by LC-MS; average where tested multiple times; read-out: AC50

Row | Compound | AC50 [µM]
28 | Cc1nnc(N2CCc3[nH]cnc3C2c2nc3ccccc3[nH]2)o1 (stereo not drawn) | > 5
29 | Cc1nnc(N2CC(C(=O)N3CCc4[nH]cnc4[C@H]3c3nc4ccccc4s3)C2)o1 (single isomer, unassigned) | > 5
30 | O=C(c1cnco1)N1CC2(CC2)c2[nH]cnc2C1c1nc2ccccc2s1 (stereo not drawn) | 1 to 5
31 | O=C(C1CC1)N1CCc2[nH]cnc2C1c1nc2ccc(Br)cc2s1 (stereo not drawn) | 1 to 5
32 | Cn1nc(Br)nc1C(=O)N1CCc2[nH]cnc2C1c1nc2c(F)cccc2s1 (stereo not drawn) | 1 to 5
33 | Cc1c(C(=O)N2CCc3[nH]cnc3[C@H]2c2nc3c(F)cccc3s2)cnn1C (single isomer, unassigned) | 1 to 5
34 | Cc1nc(C(C)(C)O)oc1C(=O)N1CC2(CC2)c2[nH]cnc2C1c1nc2ccccc2s1 (stereo not drawn) | > 5
35 | O=C(Cc1nc(C(F)(F)F)cs1)N1CCc2[nH]cnc2C1c1nc2ccc(F)cc2[nH]1 (stereo not drawn) | > 5
36 | Cn1ncc(C(=O)N2CCc3[nH]cnc3C2c2nc3c(F)cccc3s2)c1Cl (stereo not drawn) | > 5
